Among the data in US20060074243A1, “Hydroxamic acid and amide compounds and their use as protease inhibitors” (Pharmacia Corporation, priority 2002, published 2006) are Ki values, retold here.

By Ki is commonly meant the equilibrium dissociation constant of an inhibitor or competing ligand from its target.

In test [1] the target is T1, Human recombinant MMP-1 (Homo sapiens, UniProt P03956).
T1 construct: made in house; host or cells: MMP-1-transfected HT-1080 cells (spent media)
T1 sequence (P03956 100-469): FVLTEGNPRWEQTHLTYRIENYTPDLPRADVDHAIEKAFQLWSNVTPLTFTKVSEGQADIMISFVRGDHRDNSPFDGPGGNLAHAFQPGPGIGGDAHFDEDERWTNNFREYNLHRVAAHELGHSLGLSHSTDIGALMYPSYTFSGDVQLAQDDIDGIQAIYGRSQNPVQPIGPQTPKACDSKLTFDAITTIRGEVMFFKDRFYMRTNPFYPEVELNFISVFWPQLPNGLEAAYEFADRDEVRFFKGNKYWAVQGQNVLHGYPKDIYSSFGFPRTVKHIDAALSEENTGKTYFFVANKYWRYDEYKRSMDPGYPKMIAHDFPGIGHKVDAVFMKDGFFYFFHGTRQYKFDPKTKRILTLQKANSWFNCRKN
As to the kind of experiment: In vitro MMP inhibition analysis (fluorogenic peptide substrate cleavage), Ki. The class given is biochemical. Conditions: Table 2. The method in brief: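 APMA- or trypsin-activated recombinant human MMP-1 (purified from transfected HT-1080 medium) with 4 μM MCA/Dpa quenched fluorogenic peptide, 1 h at room temperature in Tris/NaCl/CaCl2 buffer pH 7.5; fluorescence ex 330/em 420 nm. Ki from Morrison-equation fit of rates, substrate at or below Km, uncorrected.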

Test [2] addresses T2, Human recombinant MMP-13 (Homo sapiens, UniProt P45452).
T2 construct: made in house; host or cells: baculovirus / insect cells
The test is described as above. In kind it is biochemical. Conditions: Table 2. The method in brief:
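Baculovirus-expressed full-length MMP-13 proenzyme was purified on heparin-agarose and zinc-chelate columns, then APMA-activated. It cleaved 4 μM MCA/Dpa fluorogenic peptide in 100 mM Tris-HCl, 100 mM NaCl, 10 mM CaCl2, 0.05% Brij-23, pH 7.5, for 1 h at room temperature (ex 330/em 420 nm). Ki came from Morrison-equation fits with substrate ≤Km, uncorrected.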

With `COCCOc1ccc(-c2ccc(S(=O)(=O)C3(C(=O)NO)CCOCC3)cc2)cc1` [Example 70], the inhibition constant (Ki) in test [1] came to 969 nM; in test [2], 0.03 nM.

`CCCCOc1ccc(-c2ccc(S(=O)(=O)C3(C(=O)NO)CCOCC3)cc2)cc1` [Example 77]: the values for the Ki in test [1] and in test [2] were 1290 nM and 0.0485 nM, respectively.

Consider `CCCCOc1ccc(-c2ccc(S(=O)(=O)C3(C(=O)NO)CCOCC3)cc2)cc1C(F)(F)F` [Example 78], for which the Ki was above 10000 nM in test [1] and 16.6 nM in test [2].

For the compound `CCc1ccc(-c2ccc(S(=O)(=O)C3(C(=O)NO)CCOCC3)cc2)cc1` [Example 79], the Ki was 471 nM in test [1] and 0.091 nM in test [2].

With `O=C(NO)C1(S(=O)(=O)c2ccc(-c3ccc(OC(F)(F)F)cc3)cc2)CCOCC1` [Example 80], the inhibitory constant (Ki) turned out to be 577 nM in test [1] and 0.068 nM in test [2].

With `Cc1ccc(-c2ccc(S(=O)(=O)C3(C(=O)NO)CCOCC3)cc2)nc1` [Example 81], the Ki came out at 354 nM in test [1] and 0.118 nM in test [2].

For `O=C(NO)C1(S(=O)(=O)c2ccc(-c3ccc(C(F)(F)F)cn3)cc2)CCOCC1` [Example 82], the values for the inhibition constant (Ki) in test [1] and in test [2] were 256 nM and 0.13 nM, respectively.

Turning to `CCCCNc1cnc(-c2ccc(S(=O)(=O)C3(C(=O)NO)CCOCC3)cc2)cn1` [Example 83], the Ki was above 10000 nM in test [1] and 1.31 nM in test [2].

`O=C(NO)C1(S(=O)(=O)c2ccc(-c3ccc(F)c(C(F)(F)F)c3)cc2)CCOCC1` [Example 84]: the Ki was above 10000 nM in test [1] and 1.85 nM in test [2].

`O=C(NO)C1(S(=O)(=O)c2ccc(-c3ccc(OCC(F)(F)C(F)F)c(C(F)(F)F)c3)cc2)CCOCC1` [Example 85]: the Ki is above 10000 nM in test [1] and 14.7 nM in test [2].

In the case of `CC(C)CCOc1ccc(-c2ccc(S(=O)(=O)C3(C(=O)NO)CCOCC3)cc2)cc1C(F)(F)F` [Example 86], the values for the Ki in test [1] and in test [2] were above 10000 nM and 36.2 nM, respectively.

For the compound `CCCc1ccc(-c2ccc(S(=O)(=O)C3(C(=O)NO)CCOCC3)cc2)cc1` [Example 87], the inhibitory constant (Ki) in test [1] came out at 1110 nM; in test [2], 0.138 nM.

In the case of `O=C(NO)C1(S(=O)(=O)c2ccc(-c3cnc(OCCCC(F)(F)F)cn3)cc2)CCOCC1` [Example 88], the Ki was 3520 nM in test [1] and 0.0368 nM in test [2].

For the compound `CCCCc1ccc(-c2ccc(S(=O)(=O)C3(C(=O)NO)CCOCC3)cc2)nc1` [Example 89], the Ki in test [1] came to 2260 nM; in test [2], 0.0332 nM.

For `O=C(NO)C1(S(=O)(=O)c2ccc(-c3ccc(OCC(F)(F)C(F)(F)F)c(C(F)(F)F)c3)cc2)CCOCC1` [Example 90], the values for the Ki in test [1] and in test [2] were above 10000 nM and 19.7 nM, respectively.

In the case of `CCCCc1ccc(-c2ccc(S(=O)(=O)C3(C(=O)NO)CCOCC3)cc2)cc1` [Example 91], the Ki amounted to 3900 nM in test [1] and 0.217 nM in test [2].

With `CCC(C)COc1ccc(-c2ccc(S(=O)(=O)C3(C(=O)NO)CCOCC3)cc2)cc1C(F)(F)F` (stereo not drawn) [Example 92], the inhibition constant (Ki) in test [1] is above 10000 nM; in test [2], 29.7 nM.

Consider `CCNc1cnc(-c2ccc(S(=O)(=O)C3(C(=O)NO)CCOCC3)cc2)cn1` [Example 93], for which the inhibitory constant (Ki) in test [1] was above 10000 nM; in test [2] it was 4.45 nM.

With `O=C(NO)C1(S(=O)(=O)c2ccc(-c3cnc(-n4cccc4)cn3)cc2)CCOCC1` [Example 94], the inhibitory constant (Ki) in test [1] was above 10000 nM; in test [2], 0.428 nM.

Take `O=C(NO)C1(S(=O)(=O)c2ccc(-c3ccc(OCC(F)(F)C(F)(F)F)cc3)cc2)CCOCC1` [Example 95]: the Ki came out at 1020 nM in test [1] and 0.155 nM in test [2].

Consider `O=C(NO)C1(S(=O)(=O)c2ccc(-c3ccc(C(F)(F)F)cc3F)cc2)CCOCC1` [Example 96], for which the inhibition constant Ki in test [1] was determined as 602 nM; in test [2], 0.416 nM.

In the case of `CC(C)c1ccc(-c2ccc(S(=O)(=O)C3(C(=O)NO)CCOCC3)cc2)cc1` [Example 97], the figures for the inhibition constant (Ki) in test [1] and in test [2] were 1040 nM and 0.521 nM, respectively.

As to `COC/C(Cl)=C/c1cnc(-c2ccc(S(=O)(=O)C3(C(=O)NO)CCOCC3)cc2)cn1` [Example 165], the figures for the inhibition constant Ki in test [1] and in test [2] were 8950 nM and 0.84 nM, respectively.

Take `CC(C)CC#Cc1cnc(-c2ccc(S(=O)(=O)C3(C(=O)NO)CCOCC3)cc2)cn1` [Example 166]: the results for the inhibition constant Ki in test [1] and in test [2] were 1660 nM and 0.03 nM, respectively.

For the compound `O=C(NO)C1(S(=O)(=O)c2ccc(-c3ccc(CCC(F)(F)C(F)(F)F)cc3)cc2)CCS(=O)(=O)CC1` [Example 167], the inhibitory constant (Ki) in test [1] is above 10000 nM; in test [2], 0.74 nM.

Turning to `O=C(NO)C1(S(=O)(=O)c2ccc(-c3cnc(OCC4CC4)cn3)cc2)CCOCC1` [Example 168], the Ki in test [1] is 1920 nM; in test [2], 0.06 nM.

For `CC(C)CCc1cnc(-c2ccc(S(=O)(=O)C3(C(=O)NO)CCOCC3)cc2)cn1` [Example 169], the inhibitory constant (Ki) in test [1] was above 10000 nM; in test [2], 0.24 nM.

In the case of `CC(C)COc1cnc(-c2ccc(S(=O)(=O)C3(C(=O)NO)CCOCC3)cc2)cn1` [Example 170], the Ki in test [1] was found to be 693 nM; in test [2], 0.08 nM.

Turning to `O=C(N1CCOCC1)N1CCC(C(=O)NO)(S(=O)(=O)c2ccc(-c3ccc(CCC(F)(F)C(F)(F)F)cc3)cc2)CC1` [Example 171], the results for the Ki in test [1] and in test [2] were 6370 nM and 0.23 nM, respectively.

Consider `O=C(NO)C1(S(=O)(=O)c2ccc(-c3cnc(OCCC4CC4)cn3)cc2)CCOCC1` [Example 172], for which the values for the Ki in test [1] and in test [2] were 1360 nM and 0.03 nM, respectively.

Consider `CN(C)C(=O)N1CCC(C(=O)NO)(S(=O)(=O)c2ccc(-c3ccc(CCC(F)(F)C(F)(F)F)cc3)cc2)CC1` [Example 173], for which the inhibitory constant (Ki) came to 4610 nM in test [1] and 0.32 nM in test [2].

For `CC(C)N(C(=O)N1CCC(C(=O)NO)(S(=O)(=O)c2ccc(-c3ccc(CCC(F)(F)C(F)(F)F)cc3)cc2)CC1)C(C)C` [Example 174], the Ki in test [1] is above 10000 nM; in test [2] it was 1.92 nM.

Consider `O=C(N1CCCCC1)N1CCC(C(=O)NO)(S(=O)(=O)c2ccc(-c3ccc(CCC(F)(F)C(F)(F)F)cc3)cc2)CC1` [Example 175], for which the inhibition constant Ki in test [1] is above 10000 nM; in test [2] it was 0.71 nM.

Turning to `O=C(NO)C1(S(=O)(=O)c2ccc(-c3ccc(CCC(F)(F)F)cn3)cc2)CCOCC1` [Example 176], the Ki is 1200 nM in test [1] and 0.02 nM in test [2].

`COCCC(C(=O)NO)S(=O)(=O)c1ccc(-c2ccc(CCC(F)(F)C(F)(F)F)cc2)cc1` (stereo not drawn) [Example 177]: the inhibitory constant (Ki) is above 10000 nM in test [1] and 0.82 nM in test [2].

Take `O=C(NO)C1(S(=O)(=O)c2ccc(-c3cnc(OCC4CCC4)cn3)cc2)CCOCC1` [Example 178]: the Ki amounted to 1100 nM in test [1] and 0.08 nM in test [2].

On to `COc1ccc(C(=O)c2cnc(-c3ccc(S(=O)(=O)C4(C(=O)NO)CCOCC4)cc3)cn2)cc1` [Example 179], for which the Ki in test [1] is above 10000 nM; in test [2] it was 0.973 nM.

Take `O=C(NO)C1(S(=O)(=O)c2ccc(-c3cnc(OCCC4CCCC4)cn3)cc2)CCOCC1` [Example 180]: the figures for the Ki in test [1] and in test [2] were above 10000 nM and 0.15 nM, respectively.

In the case of `COC(=O)c1ccc2cc(-c3ccc(S(=O)(=O)C4(C(=O)NO)CCOCC4)cc3)ccc2c1` [Example 181], the inhibition constant (Ki) in test [1] came to 465 nM; in test [2], 0.09 nM.

On to `COc1ccc(Cc2cnc(-c3ccc(S(=O)(=O)C4(C(=O)NO)CCOCC4)cc3)cn2)cc1` [Example 182], for which the values for the inhibition constant Ki in test [1] and in test [2] were above 10000 nM and 7.07 nM, respectively.

Take `CO[C@H]1CC[C@](C(=O)NO)(S(=O)(=O)c2ccc(-c3cnc(CCC(F)(F)C(F)(F)F)cn3)cc2)CC1` [Example 183]: the Ki in test [1] is above 10000 nM; in test [2], 0.13 nM.

For `CCCCNC(=O)c1cnc(-c2ccc(S(=O)(=O)C3(C(=O)NO)CCOCC3)cc2)cn1` [Example 184], the results for the Ki in test [1] and in test [2] were 533 nM and 0.21 nM, respectively.

Regarding `CC(C)CCNC(=O)c1cnc(-c2ccc(S(=O)(=O)C3(C(=O)NO)CCOCC3)cc2)cn1` [Example 185], the inhibition constant (Ki) in test [1] was determined as 501 nM; in test [2] it was 0.19 nM.

Turning to `CC(C)CNC(=O)c1cnc(-c2ccc(S(=O)(=O)C3(C(=O)NO)CCOCC3)cc2)cn1` [Example 186], the inhibitory constant (Ki) in test [1] came out at 1100 nM; in test [2] it was 0.55 nM.

As to `COCCO[C@H]1CC[C@](C(=O)NO)(S(=O)(=O)c2ccc(-c3cnc(CCC(F)(F)C(F)(F)F)cn3)cc2)CC1` [Example 187], the Ki in test [1] was 7020 nM; in test [2], 0.1 nM.

As to `O=C(NO)C1(S(=O)(=O)c2ccc(-c3ccc4c(c3)OCO4)cc2)CCOCC1` [Example 188], the Ki in test [1] came out at 81.2 nM; in test [2], 0.08 nM.

Consider `O=C(NCC1CCCCC1)c1cnc(-c2ccc(S(=O)(=O)C3(C(=O)NO)CCOCC3)cc2)cn1` [Example 190], for which the results for the Ki in test [1] and in test [2] were 1310 nM and 0.28 nM, respectively.

With `O=C(NCC1CC1)c1cnc(-c2ccc(S(=O)(=O)C3(C(=O)NO)CCOCC3)cc2)cn1` [Example 191], the inhibition constant Ki is 200 nM in test [1] and 0.24 nM in test [2].
